Experimental data: patent US9975869B2 (Sphaera Pharma Pvt. Ltd., priority 2013, dated 2018)

tested on: AMPK; experiment: AMPK activation potential, cell based ELISA (Phospho-AMPKα Thr172) in Hep G2 cells; conditions: 10 nm concentration; Hep G2 liver cells; % activity with DMSO control as 100%; 30 min incubation for Epicatechin analogs
Description: Testing of Compounds for Their AMPK Activation Potential
AMPK activation potential of the compounds was evaluated using cell based ELISA. Hepatoma (Hep G2) liver cells were maintained in a T 75 culture flask-containing 25 mM DMEM+10% fetal calf serum. The cells were maintained in a T 75 culture flask-containing medium (DMEM+10% fetal calf serum). On reaching a confluence of 70 to 80%, the cells were seeded in a 96 well plate at a density of 40,000 cells per well in 25 mM DMEM+10% FCS medium. The plates were then incubated at 37° C. with 5% CO2 for 24 hours. Various concentrations of drugs were prepared in DMSO and diluted to required concentration with the medium and incubated at 37° C. with 5% CO2 for 30 min and 1 h for Epicatechin analogs and 11-BHP analogs respectively. Metformin was used as positive control. Cells were fixed with 4% formaldehyde for 30 minutes at room temperature and washed three times with PBS containing 0.1% Triton X-100. Endogenous peroxidase was quenched with 1% H2O2 in PBS-T (0.1% Tween 20) for 30 minutes and washed three times in PBS-T. Cells were blocked with 1% BSA in PBS-T for 1 hour. The cells were incubated with 1:1000 dilution primary antibody (Phospho-AMPKα (Thr172) Rabbit mAb, Cell Signaling in PBS-T containing 5% BSA at 4° C. overnight. The cells were then washed three times with PBS-T for 5 minutes and incubated with 1:1000 dilution secondary antibody (Anti-rabbit IgG, HRP-linked Antibody, Cell Signaling) in PBS-T with 1% BSA for 1 hour at RT. Cells were washed three times with PBS-T for 5 minutes The cells were incubated with 100 μl TMB substrate solution for 30 minutes and the reaction was stopped with 100 μl of 2N H2SO4. Then the plate was read at 450 nm using ELISA plate reader and absorbance recorded. % activity was calculated using DMSO control as 100%. All compounds of the present invention, as exemplified and encompassed are found to be active.

SMILES | % pAMPK(at 10 nm) [%]
CCCCCCCC(=O)Oc1ccc([C@H]2Oc3cc(O)cc(O)c3C[C@H]2O)cc1O [Compound 1043, 2-hydroxy-4-((2R,3R)-3,5,7-trihydroxychroman-2-yl)phenyl octanoate] | 98
COc1cc([C@H]2Oc3cc(O)ccc3C[C@H]2O)ccc1C (stereo in doubt) [Compound 1026, 2-(3-methoxy-4-methylphenyl)chromane-3,7-diol] | 101
CC(C)COC(=O)Oc1cc(OC(=O)OCC(C)C)c2c(c1)O[C@H](c1ccc(OC(=O)OCc3ccccc3)c(OC(=O)OCc3ccccc3)c1)[C@H](O)C2 [Compound 1060, dibenzyl (4-((2R,3R)-3-hydroxy-5,7-bis((isobutoxycarbonyl)oxy)chroman-2-yl)-1,2-phenylene) bis(carbonate)] | 110
Oc1ccc([C@H]2Oc3cc(O)cc(O)c3C[C@H]2O)cc1 (racemic) [Compound 1008, Cis (±) 2-(4-hydroxyphenyl)chroman-3,5,7-triol] | 103
CC(C)(C)COC(=O)Oc1ccc([C@H]2Oc3cc(O)cc(O)c3C[C@H]2O)cc1OC(=O)OCC(C)(C)C [Compound 1072, dineopentyl (4-((2R,3R)-3,5,7-trihydroxychroman-2-yl)-1,2-phenylene) bis(carbonate)] | 99
COc1cccc([C@H]2Oc3cc(O)ccc3C[C@H]2O)c1 (racemic) [Compound 1017] | 110
[2H]C1([2H])c2c(O)cc(O)cc2O[C@H](c2ccc(O)c(O)c2)[C@@H]1O [Compound 1036, (2R,3R)-2-(3,4-dihydroxyphenyl)chromane-4,4-d2-3,5,7-triol] | 105
[2H][C@]1(c2ccc(O)c(O)c2)Oc2cc(O)cc(O)c2C[C@H]1O [Compound 1037, (2R,3R)-2-(3,4-dihydroxyphenyl)chromane-2-d-3,5,7-triol] | 110
Oc1cccc([C@H]2Oc3cc(O)ccc3C[C@H]2O)c1 (racemic) [Compound 1007, Cis (±) 2-(3-hydroxyphenyl)chroman-3,7-diol] | 113
CCCO[C@@H]1Cc2ccc(O)cc2O[C@@H]1c1cccc(OC)c1 [Compound 1068, (2R,3R)-2-(3-methoxyphenyl)-3-propoxychroman-7-ol] | 90
CC(C)(C)OC(=O)O[C@@H]1Cc2c(O)cc(O)cc2O[C@@H]1c1ccc(O)c(O)c1 [Compound 1073, tert-butyl ((2R,3R)-2-(3,4-dihydroxyphenyl)-5,7-dihydroxychroman-3-yl) carbonate] | 109
COC(=O)CNC(=O)O[C@@H]1Cc2c(O)cc(O)cc2O[C@@H]1c1ccc(O)c(O)c1 [Compound 1056, methyl ((((2R,3R)-2-(3,4-dihydroxyphenyl)-5,7-dihydroxychroman-3-yl)oxy)carbonyl)glycinate] | 112
